From patent US20050256034A1, “Dioxolane analogs for improved inter-cellular delivery” (priority 2000, published 2005)

Key:
Format in all cases: cell-based
[1] = tested on: CEM/ARAC8C cells; assay: Cellular uptake assay of 3H-labelled nucleoside; conditions: 30 μM, 6-min time course, compared with uridine
Method: (§1) FIG. 1 Comparative uptake of 30 μM [^3H]-troxacitabine in CEM (Panel A) and CEM/APAC8C (Panel B) cells. [^3H]-Uridine uptake in either the presence or absence of the hENT1 inhibitor, NBMPR or 5 mM non-radioactive uridine was included for comparison as a control substrate.
(§2) Cancer Res., 56: 4187-4191.
(§3) The transport of [^3H]uridine was inhibited in the presence either of the hENT1 inhibitor, NBMPR, or excess non-radioactive uridine.

[2] = tested on: CEM cells (es, hENT1); assay: Cellular uptake assay of 3H-labelled nucleoside; conditions: 30 μM, 6-min time course, compared with uridine
Method: as §1, §2, §3

[3] = molecular target: T1, recombinant hCNT2 (Homo sapiens, UniProt O43868); assay: Uptake by recombinant transporter in transiently transfected HeLa cells; conditions: 10 μM, 100 μM dilazep
T1 construct: expressed in transfected cells; host or cells: HeLa cells, transient transfection with pcDNA3-hCNT2 (subcloned from pMH15)
T1 sequence (O43868 1-658): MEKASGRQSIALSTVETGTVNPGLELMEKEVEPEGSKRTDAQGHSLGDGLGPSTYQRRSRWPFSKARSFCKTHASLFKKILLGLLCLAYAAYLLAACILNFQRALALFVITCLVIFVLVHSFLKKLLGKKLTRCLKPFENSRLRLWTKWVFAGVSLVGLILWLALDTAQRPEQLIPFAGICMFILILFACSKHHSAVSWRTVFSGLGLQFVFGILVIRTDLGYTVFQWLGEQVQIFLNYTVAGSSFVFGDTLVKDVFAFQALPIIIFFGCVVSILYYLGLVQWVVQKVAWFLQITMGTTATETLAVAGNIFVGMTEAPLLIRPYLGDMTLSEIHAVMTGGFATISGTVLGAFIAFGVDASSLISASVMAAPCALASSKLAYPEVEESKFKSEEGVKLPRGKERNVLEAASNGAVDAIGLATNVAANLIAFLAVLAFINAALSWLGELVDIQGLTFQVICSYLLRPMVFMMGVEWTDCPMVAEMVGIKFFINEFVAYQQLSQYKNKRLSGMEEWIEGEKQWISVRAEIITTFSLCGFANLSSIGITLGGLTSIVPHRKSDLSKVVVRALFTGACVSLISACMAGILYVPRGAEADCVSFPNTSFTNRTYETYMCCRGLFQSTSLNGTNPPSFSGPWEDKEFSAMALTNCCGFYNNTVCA
Method: Transport assays were conducted in the presence of the equilibrative transport inhibitor, 100 μM dilazep and either in the presence ( ? ) or absence (▴) of […].sodium, and compared to HeLa cells transiently transfected with the empty vector control plasmic (▾)
Expression plasmids encoding recombinant hCNT1 and hCNT2 are prepared using conventional methods. […] The expression vectors are separately introduced into actively proliferating HeLa cells, following conventional methods. See, e.g., Fang et al (1996).
Recombinant hCNT1 and hCNT2 were separately introduced into HeLa cells by transient transfection of pcDNA3 plasmids containing the coding sequences of the relevant nucleoside transporter protein. […] Uptake of 10 μM [:H]troxacitabine was not mediated either by hCNT1 or by hCNT2.

[4] = tested on: CEM cells; assay: CellTiter 96 cell proliferation assay, 48 h exposure; conditions: Homo sapiens, CCRF-CEM, 48 h, read-out: Chemosensitivity, 50% of the dose response curve (EC50), CEM + NBMPR (100 nM), 48 h exposure, mean ± SD
Method: The chemosensitivity of suspension cells lines (e.g., CEM or CEM-derivatives) is assessed using the CellTiter 96 ? proliferation assay. […] Chemosensitivity is expressed as 50% (ECso) of the dose response curve determined, e.g., using GraphPad Prism 2.01 (GraphPad Software, San Diego, Calif.). Adherent cell lines (e.g., DU145 or DU145^R) are seeded (˜10^5 cells) in triplicate dishes, 24 h before drug exposure. Growth inhibition is determined by trypsinization and counting cells electronically.

Compound: Nc1ccn([C@@H]2CO[C@H](CO)O2)c(=O)n1 [Troxacitabine, troxacitabine]
- uptake of 3H-labelled nucleoside [1]: taken up to a lesser degree
- uptake of 3H-labelled nucleoside [2]: taken up to a lesser degree
- uptake mediated by hCNT2 [3]: not mediated
- EC50 [4]: 210 ± 19 nM
